Target: T1, human recombinant full-length fatty acid synthase (FASN) (Homo sapiens, UniProt P49327)
T1 construct: 40 nM human recombinant full-length fatty acid synthase (produced in-house in SF9 cells); made in house; host or cells: SF9 insect cells
Assay: Biochemical activity testing of human fatty acid synthase FASN (NADPH fluorescence intensity enzyme assay)
Conditions: human recombinant FASN, enzyme assay
Source text: Biochemical Activity Testing of Human Fatty Acid Synthase FASN
Fatty acid synthase FASN is a multifunctional enzyme with seven catalytic activities thereby synthesising long chain fatty acids especially palmitoyl-CoA in the presence of co-factor NADPH starting from the substrates acetyl-CoA and malonyl-CoA. The reductive synthesis is realized by the oxidation of NADPH to NADP. Since NADPH has a high fluorescence intensity quantum yield compared to NADP with excitation at 340 nm and emission at 460 nm, the reaction can be monitored via the decrease in fluorescence intensity. The biochemical FASN activity testing was performed as 384 well two-time-point kinetic fluorescence intensity assay format in Greiner low volume medium binding 384-well black microtiter plates in a total assay volume of 8 μl and was used for high throughput screen. In each well 3 μl 40 nM human recombinant full-length fatty acid synthase (produced in-house in SF9 cells) were dispensed in the following assay buffer: 50 mM potassium phosphate buffer pH 7.0, 0.005% (w/v) BSA, 2 mM Glutathione, 0.02% Tween-20. Then 2 μl of 200 μM NADPH in assay buffer were added, followed by the addition of the test compounds in 10 dilution concentrations starting with 30 μM (final concentration) to get a final DMSO content of 1% (v/v). The mixture was incubated for at least 15 min at room temperature. After the pre-incubation the enzymatic reaction was started by the addition of 2 μl substrate solution (80 μM acetyl-CoA, 240 μM malonyl-CoA). A first fluorescence intensity measurement (time point one) was performed with an Envision multimode reader (Perkin Elmer LAS Germany GmbH) at excitation wavelength 340 nm (lamp mode) and emission wavelength 460 nm. The reaction was incubated for 30 minutes at room temperature. After this the fluorescence intensity was measured again in the Envision using the same parameters as described above (second time point measurement). The data were analysed by subtracting the first time point measurement value from the second time point measurement value (after the enzymatic reaction). The differences of the emission signals were determined. These reflect directly the conversion rate of NADPH. The full value used was the inhibitor-free reaction. A pharmacological zero value was used like GSK837149A (Sigma-Aldrich) in a final concentration of 5-10 μM. The inhibitory values (IC50) were determined using either the program Symyx Assay Explorer® or Condosseo® from GeneData.

T1 sequence (P49327 whole entry): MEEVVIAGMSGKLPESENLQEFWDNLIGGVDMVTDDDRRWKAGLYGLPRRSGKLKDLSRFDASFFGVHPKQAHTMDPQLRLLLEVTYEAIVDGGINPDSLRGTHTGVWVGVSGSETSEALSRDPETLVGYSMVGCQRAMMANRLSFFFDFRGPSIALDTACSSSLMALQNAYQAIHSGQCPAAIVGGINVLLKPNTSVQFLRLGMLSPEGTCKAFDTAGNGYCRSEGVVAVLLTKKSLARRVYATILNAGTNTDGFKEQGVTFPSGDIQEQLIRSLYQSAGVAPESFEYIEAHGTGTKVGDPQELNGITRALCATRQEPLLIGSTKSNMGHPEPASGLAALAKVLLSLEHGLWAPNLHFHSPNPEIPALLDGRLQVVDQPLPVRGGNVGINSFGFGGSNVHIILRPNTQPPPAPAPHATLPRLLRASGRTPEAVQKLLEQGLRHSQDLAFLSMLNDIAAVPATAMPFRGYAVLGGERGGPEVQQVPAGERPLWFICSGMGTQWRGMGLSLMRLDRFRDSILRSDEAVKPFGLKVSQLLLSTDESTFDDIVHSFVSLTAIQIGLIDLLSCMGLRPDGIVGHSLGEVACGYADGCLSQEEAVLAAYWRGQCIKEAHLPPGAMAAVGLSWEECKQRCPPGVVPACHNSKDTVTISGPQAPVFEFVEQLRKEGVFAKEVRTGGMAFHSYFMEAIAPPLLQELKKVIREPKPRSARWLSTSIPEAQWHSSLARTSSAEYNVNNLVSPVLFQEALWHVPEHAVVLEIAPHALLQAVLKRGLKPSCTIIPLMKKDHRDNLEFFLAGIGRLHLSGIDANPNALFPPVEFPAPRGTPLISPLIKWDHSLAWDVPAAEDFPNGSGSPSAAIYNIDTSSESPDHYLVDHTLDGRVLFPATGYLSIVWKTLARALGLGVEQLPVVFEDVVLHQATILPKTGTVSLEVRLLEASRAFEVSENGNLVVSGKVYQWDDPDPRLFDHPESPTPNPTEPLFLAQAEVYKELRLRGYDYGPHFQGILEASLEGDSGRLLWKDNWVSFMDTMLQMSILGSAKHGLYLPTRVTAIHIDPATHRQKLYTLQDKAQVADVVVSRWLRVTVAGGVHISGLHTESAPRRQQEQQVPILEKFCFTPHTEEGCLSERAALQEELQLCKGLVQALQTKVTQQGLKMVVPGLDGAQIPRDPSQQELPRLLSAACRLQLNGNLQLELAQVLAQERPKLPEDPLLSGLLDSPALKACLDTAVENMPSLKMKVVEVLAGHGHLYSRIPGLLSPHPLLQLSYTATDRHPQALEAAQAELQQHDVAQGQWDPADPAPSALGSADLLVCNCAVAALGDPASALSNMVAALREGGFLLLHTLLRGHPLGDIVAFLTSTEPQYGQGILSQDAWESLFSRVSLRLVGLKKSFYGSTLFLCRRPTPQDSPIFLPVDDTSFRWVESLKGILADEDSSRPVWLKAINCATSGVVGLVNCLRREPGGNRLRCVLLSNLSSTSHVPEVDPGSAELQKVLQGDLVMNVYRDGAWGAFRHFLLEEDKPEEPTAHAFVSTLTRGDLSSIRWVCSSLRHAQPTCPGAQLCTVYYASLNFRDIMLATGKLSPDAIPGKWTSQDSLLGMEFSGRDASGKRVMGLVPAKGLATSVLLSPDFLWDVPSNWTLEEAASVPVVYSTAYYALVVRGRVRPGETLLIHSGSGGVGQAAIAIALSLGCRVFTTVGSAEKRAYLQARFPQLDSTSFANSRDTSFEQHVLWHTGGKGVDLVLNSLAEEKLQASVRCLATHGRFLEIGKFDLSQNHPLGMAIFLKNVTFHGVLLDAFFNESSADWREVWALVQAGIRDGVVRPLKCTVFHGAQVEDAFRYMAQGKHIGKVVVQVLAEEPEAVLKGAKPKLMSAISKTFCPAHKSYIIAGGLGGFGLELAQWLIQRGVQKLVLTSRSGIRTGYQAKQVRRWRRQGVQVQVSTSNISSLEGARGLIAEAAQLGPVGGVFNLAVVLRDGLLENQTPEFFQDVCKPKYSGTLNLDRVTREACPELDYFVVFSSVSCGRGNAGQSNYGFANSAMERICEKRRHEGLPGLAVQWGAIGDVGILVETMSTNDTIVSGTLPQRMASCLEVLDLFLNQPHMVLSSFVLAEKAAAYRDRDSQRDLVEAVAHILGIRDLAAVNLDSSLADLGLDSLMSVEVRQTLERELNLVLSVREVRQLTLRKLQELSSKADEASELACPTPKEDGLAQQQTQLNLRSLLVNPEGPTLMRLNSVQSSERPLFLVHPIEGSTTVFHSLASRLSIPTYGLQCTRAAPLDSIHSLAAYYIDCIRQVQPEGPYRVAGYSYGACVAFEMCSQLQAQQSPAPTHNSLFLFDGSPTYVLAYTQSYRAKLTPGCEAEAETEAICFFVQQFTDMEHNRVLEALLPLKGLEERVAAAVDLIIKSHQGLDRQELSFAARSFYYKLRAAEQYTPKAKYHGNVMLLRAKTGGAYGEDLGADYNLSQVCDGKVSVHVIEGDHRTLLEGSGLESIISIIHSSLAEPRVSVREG

| IC50 [nM] | SMILES |
| --- | --- |
| < 300 | CCC(=O)N[C@H]1CC[C@@H](n2cncc2-c2ccc(-c3cccc4[nH]ncc34)cc2)C1 [Compound A22, N-((1S,3R)-3-{5-[4-(1H-indazol-4-yl)-phenyl]-imidazol-1-yl}-cyclopentyl)-propionamide] |
| < 300 | CCC(=O)N[C@H]1CC[C@@H](n2nncc2-c2ccc(-c3ccc4[nH]ccc4c3)nc2)C1 [Compound A107, N-((1S,3R)-3-{5-[6-(1H-Indol-5-yl)-pyridin-3-yl]-[1,2,3]triazol-1-yl}-cyclopentyl)-propionamide] |
| < 300 | CCC(=O)N[C@H]1CC[C@@H](n2nncc2-c2ccc(-c3ccc4cc[nH]c4c3)nc2)C1 [Compound A121, N-((1S,3R)-3-{5-[6-(1H-Indol-6-yl)-pyridin-3-yl]-[1,2,3]triazol-1-yl}-cyclopentyl)-propionamide] |
| < 300 | CCC(=O)N[C@H]1CC[C@@H](n2cncc2-c2ccc(-c3nc4ccccc4o3)cc2)C1 [Compound A19, N-{(1S,3R)-3-[5-(4-benzoxazol-2-yl-phenyl)-imidazol-1-yl]-cyclopentyl}-propionamide] |
| < 300 | CCC(=O)N[C@H]1CC[C@@H](n2nncc2-c2ccc(-c3ccc(OC)cc3C)cc2)C1 [Compound A82, N-{(1S,3R)-3-[5-(4′-Methoxy-2′-methyl-biphenyl-4-yl)-[1,2,3]triazol-1-yl]-cyclopentyl}-propionamide] |
| < 300 | CCC(=O)N[C@H]1CC[C@@H](n2nncc2-c2ccc(-c3ccc(C#N)cc3)cc2)C1 [Compound A58, N-{(1S,3R)-3-[5-(4′-Cyano-biphenyl-4-yl)-[1,2,3]triazol-1-yl]-cyclopentyl}-propionamide] |
| < 300 | CCNC(=O)[C@H]1CC[C@@H](n2cnnc2-c2ccc(-c3ccc4cc[nH]c4c3)cc2)C1 [Compound A30, (1S,3R)-3-{3-[4-(1H-indol-6-yl)-phenyl]-[1,2,4]triazol-4-yl}-cyclopentanecarboxylic acid ethylamide] |
| < 300 | CCNC(=O)[C@H]1CC[C@@H](n2cnnc2-c2ccc(-c3nc4ccccc4s3)cc2)C1 [Compound A33, (1S,3R)-3-[3-(4-benzothiazol-2-yl-phenyl)-[1,2,4]triazol-4-yl]-cyclopentanecarboxylic acid ethylamide] |
| < 300 | CCC(=O)N[C@H]1CC[C@@H](n2nncc2-c2ccc(-c3ccc4[nH]ncc4c3)cc2)C1 [Compound A74, N-((1S,3R)-3-{5-[4-(1H-Indazol-5-yl)-phenyl]-[1,2,3]triazol-1-yl}-cyclopentyl)-propionamide] |
| 300 to 3000 | CCNC(=O)[C@H]1CC[C@@H](n2nncc2-c2ccc(-c3ccc(C(=O)O)cc3)cc2)C1 [Compound A100, 4′-[3-((1R,3S)-3-Ethylcarbamoyl-cyclopentyl)-3H-[1,2,3]triazol-4-yl]-biphenyl-4-carboxylic acid] |
| < 300 | CCC(=O)N[C@H]1CC[C@@H](n2nncc2-c2ccc(-c3ccc4[nH]ccc4c3F)nc2)C1 [Compound A108, N-((1S,3R)-3-{5-[6-(4-Fluoro-1H-indol-5-yl)-pyridin-3-yl]-[1,2,3]triazol-1-yl}-cyclopentyl)-propionamide] |
| < 300 | CCNC(=O)[C@H]1CC[C@@H](n2nncc2-c2ccc(-c3ccc(C#N)c(F)c3)cc2)C1 [Compound A105, (1S,3R)-3-[5-(4′-Cyano-3′-fluoro-biphenyl-4-yl)-[1,2,3]triazol-1-yl]-cyclopentanecarboxylic acid ethylamide] |
| < 300 | CCNC(=O)[C@H]1CC[C@@H](n2cncc2-c2ccc(-c3ccc(Cl)cc3)cc2)C1 [Compound A3, (1S,3R)-3-[5-(4′-Chloro-biphenyl-4-yl)-imidazol-1-yl]-cyclopentanecarboxylic acid ethylamide] |
| < 300 | CCC(=O)N[C@H]1CC[C@@H](n2nncc2-c2ccc(-c3ccc(OCC4CC4)cc3)cc2)C1 [Compound A92, N-{(1S,3R)-3-[5-(4′-Cyclopropylmethoxy-biphenyl-4-yl)-[1,2,3]triazol-1-yl]-cyclopentyl}-propionamide] |
| < 300 | CCNC(=O)[C@H]1CC[C@@H](n2cncc2-c2ccc(-c3ccccc3)cc2)C1 [Compound A2, (1S,3R)-3-(5-biphenyl-4-yl-imidazol-1-yl)-cyclopentanecarboxylic acid ethylamide] |
| 300 to 3000 | O=C(N[C@H]1CC[C@@H](n2nncc2-c2ccc(-c3nc4ccccc4o3)cc2)C1)[C@@H](O)CO [Compound A93, (S)—N-{(1S,3R)-3-[5-(4-Benzoxazol-2-yl-phenyl)-[1,2,3]triazol-1-yl]-cyclopentyl}-2,3-dihydroxy-propionamide] |
| < 300 | CCC(=O)N[C@H]1CC[C@@H](n2nncc2-c2ccc(-c3ccc(F)c(Cl)c3)cc2)C1 [Compound A85, N-{(1S,3R)-3-[5-(3′-Chloro-4′-fluoro-biphenyl-4-yl)-[1,2,3]triazol-1-yl]-cyclopentyl}-propionamide] |
| < 300 | CCC(=O)N[C@H]1CC[C@@H](n2nncc2-c2ccc(-c3ccc(-c4cnn(C)c4)cc3)cc2)C1 [Compound A64, N-((1S,3R)-3-{5-[4′-(1-Methyl-1H-pyrazol-4-yl)-biphenyl-4-yl]-[1,2,3]triazol-1-yl}-cyclopentyl)-propionamide] |
| < 300 | CCNC(=O)[C@H]1CC[C@@H](n2cnnc2-c2ccc(-c3cccc4[nH]ncc34)cc2)C1 [Compound A35, (1S,3R)-3-{3-[4-(1H-indazol-4-yl)-phenyl]-[1,2,4]triazol-4-yl}-cyclopentanecarboxylic acid ethylamide] |
| < 300 | CCC(=O)N[C@H]1CC[C@@H](n2nncc2-c2ccc(-c3ccc(OC)c(OC)c3)cc2)C1 [Compound A88, N-{(1S,3R)-3-[5-(3′,4′-Dimethoxy-biphenyl-4-yl)-[1,2,3]triazol-1-yl]-cyclopentyl}-propionamide] |
| < 300 | CCC(=O)N[C@H]1CC[C@@H](n2nncc2-c2ccc(-c3ccc4c(ccn4C)c3)cc2)C1 [Compound A71, N-((1S,3R)-3-{5-[4-(1-Methyl-1H-indol-5-yl)-phenyl]-[1,2,3]triazol-1-yl}-cyclopentyl)-propionamide] |
| < 300 | CCNC(=O)[C@H]1CC[C@@H](n2nncc2-c2ccc(-c3nc4ccccc4o3)cc2)C1 [Compound A13, (1S,3R)-3-[5-(4-benzoxazol-2-yl-phenyl)-[1,2,3]triazol-1-yl]-cyclopentanecarboxylic acid ethylamide] |
| 300 to 3000 | CCNC(=O)[C@H]1CC[C@@H](n2nncc2-c2ccc(-c3ccc(C(N)=O)cc3)cc2)C1 [Compound A99, 4′-[3-((1R,3S)-3-Ethylcarbamoyl-cyclopentyl)-3H-[1,2,3]triazol-4-yl]-biphenyl-4-carboxylic acid amide] |
| < 300 | CCC(=O)N[C@H]1CC[C@@H](n2nncc2-c2ccc(-c3ccc4[nH]c(=O)[nH]c4c3)cc2)C1 [Compound A87, N-((1S,3R)-3-{5-[4-(2-Oxo-2,3-dihydro-1H-benzimidazol-5-yl)-phenyl]-[1,2,3]triazol-1-yl}-cyclopentyl)-propionamide] |
| < 300 | CCNC(=O)[C@H]1CC[C@@H](n2nncc2-c2ccc(-c3ccc(OC)c(OC)c3)cc2)C1 [Compound A102, (1S,3R)-3-[5-(3′,4′-Dimethoxy-biphenyl-4-yl)-[1,2,3]triazol-1-yl]-cyclopentanecarboxylic acid ethylamide] |
| < 300 | CCNC(=O)[C@H]1CC[C@@H](n2cnnc2-c2ccc(-c3nc4ccccc4o3)cc2)C1 [Compound A29, (1S,3R)-3-[3-(4-benzoxazol-2-yl-phenyl)-[1,2,4]triazol-4-yl]-cyclopentanecarboxylic acid ethylamide] |
| < 300 | CC(=O)N[C@H]1CC[C@@H](n2nncc2-c2ccc(-c3nc4ccccc4o3)cc2)C1 [Compound A24, N-{(1S,3R)-3-[5-(4-benzoxazol-2-yl-phenyl)-[1,2,3]triazol-1-yl]-cyclopentyl}-acetamide] |
| < 300 | CCC(=O)N[C@H]1CC[C@@H](n2nncc2-c2ccc(-c3ccc4c(cnn4C)c3)cc2)C1 [Compound A61, N-((1S,3R)-3-{5-[4-(1-Methyl-1H-indazol-5-yl)-phenyl]-[1,2,3]triazol-1-yl}-cyclopentyl)-propionamide] |
| < 300 | CCC(=O)N[C@H]1CC[C@@H](n2cnnc2-c2ccc(-c3cccc4[nH]ncc34)cc2)C1 [Compound A42, N-((1S,3R)-3-{3-[4-(1H-indazol-4-yl)-phenyl]-[1,2,4]triazol-4-yl}-cyclopentyl)-propionamide] |
| < 300 | CCC(=O)N[C@H]1CC[C@@H](n2cnnc2-c2ccc(-c3ccc(C#N)cc3)cc2)C1 [Compound A40, N-{(1S,3R)-3-[3-(4′-cyano-biphenyl-4-yl)-[1,2,4]triazol-4-yl]-cyclopentyl}-propionamide] |

Source: patent US9718785B2, “1,3-Disubstituted cyclopentane derivatives” (MERCK PATENT GMBH, priority 2013, dated 2017)
